# Measured values reported in the supplement of paper PMC10733146.
# What was measured:
# Assay in all cases: viability relative to DMSO control (fraction); higher = less drug effect (more viable cells)
# Settings in all cases: 48 h
# [1] = compound: CC(=O)c1c(C)c2cnc(Nc3ccc(N4CCNCC4)cn3)nc2n(C2CCCC2)c1=O [Palbociclib]
# In short: (§1)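 Viability is given as CellTiter-Glo luminescence relative to the median of 16 inner DMSO wells. Fresh or cryopreserved primary mononuclear tumour cells from blood, bone marrow (both Ficoll-isolated) or processed lymph node were plated at 4 × 10^4 cells per well in 384-well plates against five pre-plated compound concentrations, one well each. Incubation lasted 48 h at 37 °C and 5% CO2 in RPMI-1640 with penicillin/streptomycin, L-glutamine and human serum.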
# [2] = compound: CC(C)N(CCCNC(=O)Nc1ccc(C(C)(C)C)cc1)C[C@H]1O[C@@H](n2cc(Br)c3c(N)ncnc32)[C@H](O)[C@@H]1O [SGC 0946]
# In short: as §1
# [3] = compound: CC1(C)CCC(CN2CCN(c3ccc(C(=O)NS(=O)(=O)c4ccc(NCC5CCOCC5)c([N+](=O)[O-])c4)c(Oc4cnc5[nH]ccc5c4)c3)CC2)=C(c2ccc(Cl)cc2)C1 [Venetoclax]
# In short: as §1
# [4] = compound: CC1(C)CCC(c2ccc(Cl)cc2)=C(CN2CCN(c3ccc(C(=O)NS(=O)(=O)c4ccc(N[C@H](CCN5CCOCC5)CSc5ccccc5)c(S(=O)(=O)C(F)(F)F)c4)cc3)CC2)C1 [Navitoclax]
# In short: as §1
# [5] = compound: CCN(c1cc(-c2ccc(CN3CCOCC3)cc2)cc(C(=O)NCc2c(C)cc(C)[nH]c2=O)c1C)C1CCOCC1 [EPZ-6438]
# In short: as §1
# [6] = compound: CCS(=O)(=O)N1CCC([C@@H](C)n2c(C)c(C(=O)NCc3c(OC)cc(C)[nH]c3=O)c3ccccc32)CC1 [CPI-169]
# In short: as §1
# [7] = compound: CC[C@H](CO)Nc1nc(NCc2ccccc2)c2ncn(C(C)C)c2n1 [Roscovitine]
# In short: as §1
# [8] = compound: CCc1ccc(/C=C2/SC(=S)NC2=O)cc1
# In short: as §1
# [9] = compound: COc1cc([C@@H]2c3cc4c(cc3[C@@H](O[C@@H]3O[C@@H]5CO[C@@H](C)O[C@H]5[C@H](O)[C@H]3O)[C@H]3COC(=O)[C@H]23)OCO4)cc(OC)c1O [Etoposide]
# In short: as §1
# [10] = compound: C[C@@H]1CCN(C(=O)CC#N)C[C@@H]1N(C)c1ncnc2[nH]ccc12 [Tofacitinib]
# In short: as §1
# [11] = compound: C[C@H](Nc1ncnc2nc[nH]c12)c1cc2cccc(Cl)c2c(=O)n1-c1ccccc1 [Duvelisib]
# In short: as §1
# [12] = compound: O=C(/C=C\n1cnc(-c2cc(C(F)(F)F)cc(C(F)(F)F)c2)n1)NNc1cnccn1 [Selinexor]
# In short: as §1
# [13] = compound: O=C(Nc1ccc2[nH]nc(-c3ccncc3)c2c1)[C@@H]1CCN(CC(=O)N2CCN(c3ccc(-c4ncccn4)cc3)CC2)C1
# In short: as §1
# [14] = compound: O=C1CCC(N2C(=O)c3ccccc3C2=O)C(=O)N1 [Thalidomide]
# In short: as §1
test system,measurement,setting,value
primary AML patient cells (S091),viability,[1]; 0.024 µM,1.15
same,viability,[1]; 0.12 µM,0.927
same,viability,[1]; 0.6 µM,0.738
same,viability,[1]; 3 µM,0.661
same,viability,[1]; 15 µM,0.271
same,viability,[2]; 0.024 µM,0.9
same,viability,[2]; 0.12 µM,1.55
same,viability,[2]; 0.6 µM,0.88
same,viability,[2]; 3 µM,0.959
same,viability,[2]; 15 µM,0.555
same,viability,[3]; 0.00064 µM,0.957
same,viability,[3]; 0.0032 µM,0.766
same,viability,[3]; 0.016 µM,0.484
same,viability,[3]; 0.08 µM,0.365
same,viability,[3]; 0.4 µM,0.302
same,viability,[4]; 0.0032 µM,0.94
same,viability,[4]; 0.016 µM,0.866
same,viability,[4]; 0.08 µM,0.544
same,viability,[4]; 0.4 µM,0.328
same,viability,[4]; 2 µM,0.259
same,viability,[5]; 0.024 µM,1.01
same,viability,[5]; 0.12 µM,1.05
same,viability,[5]; 0.6 µM,1.02
same,viability,[5]; 3 µM,0.938
same,viability,[5]; 15 µM,0.706
same,viability,[6]; 0.024 µM,0.849
same,viability,[6]; 0.12 µM,1.65
same,viability,[6]; 0.6 µM,1.01
same,viability,[6]; 3 µM,0.893
same,viability,[6]; 15 µM,0.802
same,viability,[7]; 0.032 µM,0.838
same,viability,[7]; 0.16 µM,1.16
same,viability,[7]; 0.8 µM,0.82
same,viability,[7]; 4 µM,1.02
same,viability,[7]; 20 µM,0.776
same,viability,[8]; 0.024 µM,0.831
same,viability,[8]; 0.12 µM,0.869
same,viability,[8]; 0.6 µM,0.92
same,viability,[8]; 3 µM,0.934
same,viability,[8]; 15 µM,0.935
same,viability,[9]; 0.032 µM,0.972
same,viability,[9]; 0.16 µM,0.939
same,viability,[9]; 0.8 µM,0.756
same,viability,[9]; 4 µM,0.585
same,viability,[9]; 20 µM,0.533
same,viability,[10]; 0.024 µM,0.946
same,viability,[10]; 0.12 µM,0.947
same,viability,[10]; 0.6 µM,0.898
same,viability,[10]; 3 µM,0.903
same,viability,[10]; 15 µM,1.03
same,viability,[11]; 0.0016 µM,0.528
same,viability,[11]; 0.008 µM,0.795
same,viability,[11]; 0.04 µM,0.636
same,viability,[11]; 0.2 µM,0.563
same,viability,[11]; 1 µM,0.375
same,viability,[12]; 0.008 µM,0.854
same,viability,[12]; 0.04 µM,0.802
same,viability,[12]; 0.2 µM,0.603
same,viability,[12]; 1 µM,0.327
same,viability,[12]; 5 µM,0.23
same,viability,[13]; 0.008 µM,0.827
same,viability,[13]; 0.04 µM,0.652
same,viability,[13]; 0.2 µM,0.45
same,viability,[13]; 1 µM,0.337
same,viability,[13]; 5 µM,0.255
same,viability,[14]; 0.032 µM,1.38
same,viability,[14]; 0.16 µM,0.939
same,viability,[14]; 0.8 µM,0.92
same,viability,[14]; 4 µM,1.02
same,viability,[14]; 20 µM,0.937
primary B-PLL patient cells (S016),viability,[1]; 0.024 µM,0.982
same,viability,[1]; 0.12 µM,0.886
same,viability,[1]; 0.6 µM,0.89
same,viability,[1]; 3 µM,0.625
same,viability,[1]; 15 µM,0.457
same,viability,[2]; 0.024 µM,1
same,viability,[2]; 0.12 µM,1.04
same,viability,[2]; 0.6 µM,0.946
same,viability,[2]; 3 µM,0.922
same,viability,[2]; 15 µM,0.435
same,viability,[3]; 0.00064 µM,0.981
same,viability,[3]; 0.0032 µM,0.834
same,viability,[3]; 0.016 µM,0.362
same,viability,[3]; 0.08 µM,0.126
same,viability,[3]; 0.4 µM,0.0603
same,viability,[4]; 0.0032 µM,1.16
same,viability,[4]; 0.016 µM,1.14
same,viability,[4]; 0.08 µM,0.767
same,viability,[4]; 0.4 µM,0.158
same,viability,[4]; 2 µM,0.0503
same,viability,[5]; 0.024 µM,1.21
same,viability,[5]; 0.12 µM,1.14
same,viability,[5]; 0.6 µM,1.1
same,viability,[5]; 3 µM,1.01
same,viability,[5]; 15 µM,1.06
same,viability,[6]; 0.024 µM,0.946
same,viability,[6]; 0.12 µM,1.02
same,viability,[6]; 0.6 µM,1.04
same,viability,[6]; 3 µM,1.01
same,viability,[6]; 15 µM,1.2
same,viability,[7]; 0.032 µM,0.927
same,viability,[7]; 0.16 µM,1.05
same,viability,[7]; 0.8 µM,1.02
same,viability,[7]; 4 µM,1.23
same,viability,[7]; 20 µM,1.09
same,viability,[8]; 0.024 µM,0.982
same,viability,[8]; 0.12 µM,0.922
same,viability,[8]; 0.6 µM,1.1
same,viability,[8]; 3 µM,0.971
same,viability,[8]; 15 µM,0.963
same,viability,[9]; 0.032 µM,1.14
same,viability,[9]; 0.16 µM,0.886
same,viability,[9]; 0.8 µM,0.762
same,viability,[9]; 4 µM,0.362
same,viability,[9]; 20 µM,0.0933
same,viability,[10]; 0.024 µM,0.953
same,viability,[10]; 0.12 µM,0.991
same,viability,[10]; 0.6 µM,0.994
same,viability,[10]; 3 µM,1.06
same,viability,[10]; 15 µM,1.03
same,viability,[11]; 0.0016 µM,0.788
same,viability,[11]; 0.008 µM,0.821
same,viability,[11]; 0.04 µM,0.708
same,viability,[11]; 0.2 µM,0.675
same,viability,[11]; 1 µM,0.674
same,viability,[12]; 0.008 µM,0.949
same,viability,[12]; 0.04 µM,0.929
same,viability,[12]; 0.2 µM,0.822
same,viability,[12]; 1 µM,0.847
same,viability,[12]; 5 µM,0.67
same,viability,[13]; 0.008 µM,1.02
same,viability,[13]; 0.04 µM,0.919
same,viability,[13]; 0.2 µM,0.953
same,viability,[13]; 1 µM,0.94
same,viability,[13]; 5 µM,0.869
same,viability,[14]; 0.032 µM,0.947
same,viability,[14]; 0.16 µM,0.931
same,viability,[14]; 0.8 µM,1.04
same,viability,[14]; 4 µM,1.05
same,viability,[14]; 20 µM,1.04
